# Assay results taken from US12435061B2 (priority 2020, dated 2025).
# Where two headings read alike, the source gives them in different places.
# Target: hTRPV3 (Homo sapiens (Human), UniProt Q8NET8)
# Assay: Whole-cell patch clamp, hTRPV3 Phase 1 / Phase 2 currents
# Format: cell-based
# Excerpt: Whole-cell patch clamp experiments permit the detection of currents through the TRPV3 channel in the cell line described above. A glass electrode is brought into contact with a single cell and the membrane is then ruptured, permitting control of the voltage of the cell membrane and measurement of currents flowing across the membrane using the amplifier attached to the electrode. A perfusion system permits control of the extracellular solution, including the addition of blockers and activators of the current. The current can be activated by heating this solution to 28° C. or warmer or by addition of 20 μM 2-APB to the solution.
# TRPV3 cells were induced 20-48 hours, removed from growth plates, and replated at low density (to attain good single-cell physical separation) on glass coverslips for measurement. In some cases, cells were grown in low density overnight on glass coverslips. Patch clamp recordings were made in the whole-cell mode with a holding potential of −40 mV. Every 5 seconds, a voltage ramp was applied from −120 to +100 mV, 400 ms in duration. Currents elicited were quantified at −80 mV and +80 mV. […] External solution was Ringer's solution described above.
# P1 refers to the Phase 1 current for human (h) TRPV3, and P2 refers to the Phase 2 current for human (h) TRPV3.
# In Tables 3 and 4, Phase 1 refers to Phase 1 current for human (h) TRPV3 or rat (r) TRPV3, and Phase 2 refers to Phase 2 current for human (h) TRPV3 or rat (r) TRPV3. The hTRPV3 and rTRPV3 assays were performed as described herein. hERG refers to the inhibition the human ERG (hERG) channel. NaV1.5, refers to the pore forming aL-subunit of the voltage-dependent cardiac Na(+) channel and is an integral membrane protein involved in the initiation and conduction of action potentials. hTRPV3 HAMA IC50 refers to the IC50 of TRPV3 cells stably expressed in TRex-293 cells. Solubility Ringer refers to the compounds' solubility in Ringer's solution. LM T1/2 refers to liver microsome half-lives in either rat or human liver microsomes. FLIPR IC50 refers to the IC50 of the test compounds against recombinant hTRPV3 cells.
# [1] = Phase 1 current, inward, whole-cell patch clamp, read-out: hTRPV3 Patch P1 Inwd
# [2] = Phase 1 current, read-out: hTRPV3 (nM) (Phase 1)
# [3] = Phase 1 current, human TRPV3, read-out: hTRPV3 (nM) Phase 1
# [4] = Phase 2 current, inward, whole-cell patch clamp, read-out: hTRPV3 Patch P2 Inwd
# [5] = Phase 2 current, read-out: hTRPV3 (nM) (Phase 2)
# Chain of hTRPV3 (Q8NET8 whole entry): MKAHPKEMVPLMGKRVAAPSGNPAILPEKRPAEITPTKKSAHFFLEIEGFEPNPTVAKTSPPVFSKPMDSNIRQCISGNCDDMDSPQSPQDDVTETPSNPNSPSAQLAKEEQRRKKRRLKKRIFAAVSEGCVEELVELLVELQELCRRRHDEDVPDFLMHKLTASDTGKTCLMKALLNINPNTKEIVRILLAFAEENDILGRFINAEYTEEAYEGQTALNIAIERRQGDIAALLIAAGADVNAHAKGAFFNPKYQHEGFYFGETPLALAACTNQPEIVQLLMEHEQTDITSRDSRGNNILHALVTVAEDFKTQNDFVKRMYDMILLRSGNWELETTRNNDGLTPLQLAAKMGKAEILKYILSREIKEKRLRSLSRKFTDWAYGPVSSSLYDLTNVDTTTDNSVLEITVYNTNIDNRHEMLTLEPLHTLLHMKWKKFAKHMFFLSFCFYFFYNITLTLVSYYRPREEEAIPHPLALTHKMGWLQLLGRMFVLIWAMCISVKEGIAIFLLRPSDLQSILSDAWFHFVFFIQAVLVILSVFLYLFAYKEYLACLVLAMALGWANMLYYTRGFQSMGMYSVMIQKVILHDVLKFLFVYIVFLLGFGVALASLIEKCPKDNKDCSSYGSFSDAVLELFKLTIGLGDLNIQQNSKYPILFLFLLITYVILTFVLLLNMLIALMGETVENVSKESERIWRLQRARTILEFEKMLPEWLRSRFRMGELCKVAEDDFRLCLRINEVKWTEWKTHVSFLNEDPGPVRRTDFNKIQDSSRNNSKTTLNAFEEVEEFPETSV
Compound,IC50 [1],IC50 [2],IC50 [3],IC50 [4],IC50 [5],"IC50 (Phase 2 current, human TRPV3, read-out: hTRPV3 (nM) Phase 2)"
OCc1nc(-c2ccccc2)ccc1N1C[C@@H](O)[C@H](Oc2ccc(C(F)(F)F)cn2)C1 [Compound 1-323],> 1000 nM,3610 nM,–,–,–,–
"Cc1ccc(C(O)c2ccc(C3CCN(C(=O)c4ncccc4Cl)C3)c(CO)c2)cc1 (stereo not drawn) [Compound 2-6, (3-chloropyridin-2-yl)(3-(4-(hydroxy(p-tolyl)methyl)-2-(hydroxymethyl)phenyl)pyrrolidin-1-yl)methanone]",> 1000 nM,–,> 3200 nM,–,–,–
"CCc1ccccc1-c1ccc(C2CCN(C(=O)c3ncccc3F)C2)c(CO)c1 (stereo not drawn) [Compound 2-54, (3-(2′-ethyl-3-(hydroxymethyl)biphenyl-4-yl)pyrrolidin-1-yl)(3-fluoropyridin-2-yl) methanone]",10 to 100 nM,–,91.3 nM,–,–,–
"CCc1ccccc1Oc1ccc(C2CCN(C(=O)c3cccc(C)n3)C2)c(C(N)=O)c1 (stereo not drawn) [Compound 2-40, 5-(2-ethylphenoxy)-2-(1-(6-methylpicolinoyl)pyrrolidin-3-yl)benzamide]",> 1000 nM,–,4900 nM,–,–,–
"NC(=O)c1nc(-c2ccccc2)ccc1N1CC[C@@H](Oc2ccc(C(F)(F)F)cn2)C1 [Compound 1-98, (R)-6-phenyl-3-(3-(5-(trifluoromethyl)pyridin-2-yloxy)pyrrolidin-1-yl)picolinamide]",100 to 1000 nM,479 nM,–,–,–,–
"O=C(c1ccc(F)cc1)c1ccc(N2CC[C@H](Oc3ncccc3F)C2)c(CO)c1 [Compound 1-293, (S)-(4-fluorophenyl)(4-(3-(3-fluoropyridin-2-yloxy)pyrrolidin-1-yl)-3-(hydroxymethyl)phenyl)methanone]",100 to 1000 nM,329 nM,–,100 to 1000 nM,322 nM,–
CCc1ccccc1-c1ccc(C2CCN(C(=O)C3CCN(C)CC3)C2)c(CO)c1 (stereo not drawn) [Compound 2-115],–,–,> 3200 nM,–,–,–
COC(=O)c1cc(-c2ccccc2C(C)C)ccc1C1CCN(C(=O)C(F)(F)F)C1 (stereo not drawn) [Compound 2-120],–,–,> 3200 nM,–,–,–
"OCc1cc(Oc2ccccc2F)ccc1N1CC[C@H](Oc2ncccc2F)C1 [Compound 1-298, (S)-(5-(2-fluorophenoxy)-2-(3-(3-fluoropyridin-2-yloxy)pyrrolidin-1-yl)phenyl)methanol]",10 to 100 nM,65.7 nM,–,10 to 100 nM,52.9 nM,–
"NCc1ccccc1N1CC[C@@H](Oc2ccc(C(F)(F)F)cn2)C1 [Compound 1-20, (R)-(2-(3-(5-(trifluoromethyl)pyridin-2-yloxy)pyrrolidin-1-yl)phenyl)methanamine]",> 1000 nM,–,–,> 1000 nM,–,–
"Cc1ccccc1-c1ccc(N2CC[C@H](Oc3ccc(Cl)cn3)C2)c(CO)n1 [Compound 1-195, (S)-(3-(3-(5-chloropyridin-2-yloxy)pyrrolidin-1-yl)-6-o-tolylpyridin-2-yl)methanol]",100 to 1000 nM,106 nM,–,10 to 100 nM,71.3 nM,–
"FC(F)(F)c1ccc(O[C@H]2CCN(c3ccccc3OCc3ccccc3)C2)nc1 [Compound 1-26, (S)-2-(1-(2-(benzyloxy)phenyl)pyrrolidin-3-yloxy)-5-(trifluoromethyl)pyridine]",> 1000 nM,–,–,–,–,–
CC(=O)c1cc(F)ccc1Oc1ccc(N2CC[C@H](Oc3ccccn3)C2)c(CO)c1 [Compound 1-343],100 to 1000 nM,199 nM,–,–,–,–
"OCc1cc(C(O)c2ccc(F)cc2)ccc1N1CC[C@H](Oc2ncccc2Cl)C1 (stereo partly drawn) [Compound 1-278, (4-((S)-3-(3-chloropyridin-2-yloxy)pyrrolidin-1-yl)-3-(hydroxymethyl)phenyl)(4-fluorophenyl)methanol]",100 to 1000 nM,254 nM,–,–,–,–
"O=C(c1ccc(F)cc1)c1ccc(N2CC[C@H](Oc3ncccc3Cl)C2)c(CCO)c1 [Compound 1-294, (S)-(4-(3-(3-chloropyridin-2-yloxy)pyrrolidin-1-yl)-3-(2-hydroxyethyl)phenyl)(4-fluorophenyl)methanone]",100 to 1000 nM,511 nM,–,100 to 1000 nM,502 nM,–
Cc1cccnc1O[C@H]1CCN(c2ccc(Oc3ccccc3)cc2C(N)=O)C1 [Compound 1-163],> 1000 nM,2180 nM,–,–,–,–

Compound,IC50 [1],IC50 [2],IC50 [3],IC50 [4],IC50 [5],"IC50 (Phase 2 current, human TRPV3, read-out: hTRPV3 (nM) Phase 2)"
"O=C(c1ccc(N2CC[C@H](Oc3ncccc3F)C2)c(CO)c1)c1ccccc1Cl [Compound 1-265, (S)-(2-chlorophenyl)(4-(3-(3-fluoropyridin-2-yloxy)pyrrolidin-1-yl)-3-(hydroxymethyl)phenyl)methanone]",> 1000 nM,1780 nM,–,–,–,–
"OCc1nc(-c2ncccn2)ccc1N1CC[C@H](Oc2ccc(C(F)(F)F)cn2)C1 [Compound 1-245, (S)-(6-(pyrimidin-2-yl)-3-(3-(5-(trifluoromethyl)pyridin-2-yloxy)pyrrolidin-1-yl)pyridin-2-yl)methanol]",> 1000 nM,> 3200 nM,–,–,–,–
"NC(=O)c1cc(-c2ccncc2)ccc1N1CC[C@@H](Oc2ccccn2)C1 [Compound 1-79, (R)-2-(3-(pyridin-2-yloxy)pyrrolidin-1-yl)-5-(pyridin-4-yl)benzamide]",> 1000 nM,> 3200 nM,–,> 1000 nM,> 3200 nM,–
"O=C(O)c1ccccc1N1CC[C@@H](Oc2ccc(C(F)(F)F)cn2)C1 [Compound 1-41, (R)-2-(3-(5-(trifluoromethyl)pyridin-2-yloxy)pyrrolidin-1-yl)benzoic acid]",> 1000 nM,–,–,> 1000 nM,–,–
"CC(C)(C)OC(=O)c1ccccc1N1CC[C@@H](Oc2ccc(C(F)(F)F)cn2)C1 [Compound 1-55, (R)-tert-butyl 2-(3-(5-(trifluoromethyl)pyridin-2-yloxy)pyrrolidin-1-yl)benzoate]",> 1000 nM,–,–,> 1000 nM,–,–
"O=C(O)c1cc(-c2ccccc2Cl)ccc1N1CC[C@H](Oc2ccc(C(F)(F)F)cn2)C1 [Compound 1-166, (S)-2′-chloro-4-(3-(5-(trifluoromethyl)pyridin-2-yloxy)pyrrolidin-1-yl)biphenyl-3-carboxylic acid]",> 1000 nM,~2210 nM,–,> 1000 nM,~2230 nM,–
"Cc1ccccc1Oc1ccc(C2CCN(C(=O)c3ncccc3Cl)C2)c(CO)c1 (stereo not drawn) [Compound 2-84, (3-chloropyridin-2-yl)(3-(2-(hydroxymethyl)-4-(o-tolyloxy)phenyl)pyrrolidin-1-yl)methanone]",–,–,932 nM,–,–,–
"Cc1cccnc1O[C@H]1CCN(c2ccc(-c3ccccc3Cl)cc2C(C)O)C1 (stereo partly drawn) [Compound 1-172, 1-(2′-chloro-4-((S)-3-(3-methylpyridin-2-yloxy)pyrrolidin-1-yl)biphenyl-3-yl)ethanol]",100 to 1000 nM,882 nM,–,–,–,–
"Cc1cccc(C(=O)c2ccc(C3CCN(C(=O)c4ncccc4Cl)C3)c(CO)c2)c1 (single isomer, unassigned) [Compound 2-3]",10 to 100 nM,–,–,–,–,–
"Cc1ccc(C(=O)c2ccc(N3CC[C@H](Oc4ncccc4F)C3)c(CO)c2)cc1 [Compound 1-300, (S)-(4-(3-(3-fluoropyridin-2-yloxy)pyrrolidin-1-yl)-3-(hydroxymethyl)phenyl)(p-tolyl)methanone]",100 to 1000 nM,860 nM,–,–,–,–
CC(C)c1ccccc1Oc1ccc(C2CCN(C(=O)Cc3ncccc3Cl)C2)c(CO)c1 (stereo not drawn) [Compound 2-117],–,–,~3500 nM,–,–,2620 nM
CC(C)c1ccccc1Oc1ccc(N2CC[C@H](Oc3ccc(C#N)cn3)C2)c(CO)c1 [Compound 1-353],10 to 100 nM,26.8 nM,–,–,–,–
"CCc1ccccc1C(O)c1ccc(N2CC[C@H](Nc3ncccc3Cl)C2)c(CO)c1 (stereo partly drawn) [Compound 1-386, (4-((S)-3-(3-chloropyridin-2-ylamino)pyrrolidin-1-yl)-3-(hydroxymethyl)phenyl)(2-ethylphenyl)methanol]",> 1000 nM,~1260 nM,–,> 1000 nM,~2150 nM,–
"CCc1ccccc1C(=O)c1ccc(N2CC[C@H](Nc3ncccc3Cl)C2)c(CO)c1 [Compound 1-384, (S)-(4-(3-(3-chloropyridin-2-ylamino)pyrrolidin-1-yl)-3-(hydroxymethyl)phenyl)(2-ethylphenyl)methanone]",100 to 1000 nM,495 nM,–,–,–,–
"Cc1ccc(C(=O)c2ccc(N3CC[C@H](Oc4ncccc4Cl)C3)c(CCO)c2)cc1 [Compound 1-295, (S)-(4-(3-(3-chloropyridin-2-yloxy)pyrrolidin-1-yl)-3-(2-hydroxyethyl)phenyl)(p-tolyl)methanone]",100 to 1000 nM,~225 nM,–,100 to 1000 nM,~178 nM,–
"Cc1cccc(Oc2ccc(N3CC[C@H](Oc4ncccc4Cl)C3)c(CO)c2)c1 [Compound 1-242, (S)-(2-(3-(3-chloropyridin-2-yloxy)pyrrolidin-1-yl)-5-(m-tolyloxy)phenyl)methanol]",10 to 100 nM,37 nM,–,–,–,–
